Data taken from PMC12797170, “Potent Competitive Inhibitors of Ecto-5′-nucleotidase (CD73) based on 6‑(Het)aryl-7-deazapurine Ribonucleoside 5′‑O‑Bisphosphonates” (ACS Pharmacology & Translational Science, 2025).
Converted amounts (≈) assume the structure as drawn.

Legend:
in vitro [1] = conditions: human, plasma
[2] = Plasma protein binding, mouse plasma; format: in vitro ADME; conditions: mouse, plasma, mouse plasma protein binding; read-out: PPB (m) (converted)
Protocol: (§1) Plasma protein binding of the investigated compounds was determined using equilibrium dialysis in single-use Rapid Equilibrium Dialysis devices with an 8 kDa molecular weight cutoff (Thermo Fisher Scientific), following the manufacturer’s protocol. In brief, 50 μL of undiluted human plasma (Biowest), spiked with the test compound at a final concentration of 100 μM, was added to the sample chamber, while 300 μL of phosphate-buffered saline (PBS) was placed in the buffer chamber. Devices were incubated for 4 h at 37 °C with gentle shaking.
(§2) After dialysis, 7.5 μL aliquots from both the plasma and buffer chambers were transferred directly into wells of a 384-well plate. To equalize the matrices for downstream processing, 7.5 μL of PBS was added to each plasma aliquot, and 7.5 μL of plasma was added to each buffer aliquot. Proteins were precipitated by adding four volumes of ice-cold methanol to each well, followed by thorough mixing and incubation at – 20 °C for 30 min. Plates were then stored overnight at 8 °C. Prior to analysis, the plate was centrifuged at 2,000 × g for 20 min at 8 °C. […] The fraction of unbound compound was calculated using the following equations: %Free=c(bufferchamber)/c(plasmachamber)*100% %Bound=100%−%Free

CCRF-CEM = assay: In vitro cytotoxic activity; format: cell-based; conditions: Homo sapiens
Protocol: (§3) All the compounds were also tested for their in vitro cytotoxic activity on a small panel of four cancer cell lines (CCRF-CEM, HepG2, HeLa S3, HL-60) and nonmalignant human dermal fibroblasts (NHDF).

HL-60 = assay: In vitro cytotoxic activity; format: cell-based; conditions: Homo sapiens
Protocol: as §3

HepG2 = assay: In vitro cytotoxic activity; format: cell-based; conditions: Homo sapiens
Protocol: as §3

HeLa S3 = assay: In vitro cytotoxic activity; format: cell-based; conditions: Homo sapiens
Protocol: as §3

[3] = tested on: nonmalignant human dermal fibroblasts (NHDF); assay: In vitro cytotoxic activity; format: cell-based
Protocol: as §3

in vitro [4] = conditions: mouse, plasma
[5] = Kinetic solubility in PBS; format: physicochemical; conditions: phosphate-buffered saline, pH 7.4, aqueous buffer, kinetic from dmso stock
Protocol: Test compounds were prepared as 10 mM stock solutions in DMSO and diluted in phosphate-buffered saline (PBS, pH 7.4) to a 100 μM solution, which was then aliquoted in duplicate. The duplicate samples were incubated in Multiscreen PCF Filter Plates (Merck Millipore) with sealed bottom at room temperature on a shaker for 2 h to allow equilibration. Following incubation, the samples were centrifuged into nonsterile, flat-bottom 96-well plates at 2,200 RCF for 12 min. Supernatants were then diluted 1:99 in a solution of 50% acetonitrile containing 0.1% DMSO. The diluted samples were transferred to 384-well Echo plates, which contained prespotted calibration standards prepared by Echo transfer of 10 mM and 1 mM DMSO stock solutions, resulting in calibration points ranging from 0.05 to 4 μM. Samples and standards were subsequently analyzed by Echo-MS.

[6] = Plasma protein binding, equilibrium dialysis, human plasma; format: in vitro ADME; conditions: undiluted plasma
Protocol: as §1, §2

[7] = Microsomal stability assay, human liver microsomes; format: in vitro ADME; conditions: for Mics (hu) comp remaining 60 min: 10 μM; for microsomal CLint at 10 µM: pooled liver microsomes, pH 7.4, read-out: Mics (hu) CLint
[8] = Microsomal stability assay, mouse liver microsomes; format: in vitro ADME; conditions: for Mics (m) comp remaining 60 min: 10 μM; for microsomal CLint at 10 µM: pooled liver microsomes, pH 7.4, read-out: Mics (m) CLint
[9] = target: T1, recombinant human CD73 (hCD73) (Homo sapiens, UniProt P21589); assay: CD73 activity assay on recombinant human CD73; format: biochemical; conditions: ΔGexp = RT ln Ki
T1 sequence (P21589 27-574): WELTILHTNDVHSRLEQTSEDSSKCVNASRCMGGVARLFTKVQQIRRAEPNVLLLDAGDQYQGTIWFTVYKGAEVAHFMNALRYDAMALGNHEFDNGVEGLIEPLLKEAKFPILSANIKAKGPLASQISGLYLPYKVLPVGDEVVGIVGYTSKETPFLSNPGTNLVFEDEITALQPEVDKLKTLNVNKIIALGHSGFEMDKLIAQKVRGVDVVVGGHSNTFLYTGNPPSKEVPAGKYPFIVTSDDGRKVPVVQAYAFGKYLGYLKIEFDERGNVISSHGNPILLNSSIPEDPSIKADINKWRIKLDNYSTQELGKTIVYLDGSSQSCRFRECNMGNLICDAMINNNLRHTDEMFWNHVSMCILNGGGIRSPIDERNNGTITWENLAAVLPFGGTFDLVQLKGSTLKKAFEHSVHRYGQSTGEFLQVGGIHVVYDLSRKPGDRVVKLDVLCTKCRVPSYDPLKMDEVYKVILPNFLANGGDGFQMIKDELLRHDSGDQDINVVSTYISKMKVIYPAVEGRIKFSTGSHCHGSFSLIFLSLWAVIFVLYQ

[10] = In vivo pharmacokinetic study, intravenous; design: species or system male CD-1 mice; conditions: plasma, 1 mg/kg, intravenous; for half-life: male, CD-1, mouse, iv, footnote: t1/2 stability in plasma, text: half-life in mouse PK; for clearance: mouse, male CD-1 mice, single dose, read-out: Cl (obs), observed clearance
Protocol: The pharmacokinetic study was performed by Bienta (Enamine Biology Services) using male CD-1 mice (3 animals, 9 weeks old, body weight ranging from 29.2 to 33.7 g) following intravenous administration. Levels of the test compound were determined by LC-MS/MS in blood plasma over time (seven sampling time points: 5, 15, 30, 60, 120, 240, and 480 min) after a single dose.
Animal treatment and samples preparation were conducted by the Animal Laboratory personnel at Enamine/Bienta.

[11] = human plasma protein binding, read-out: PPB (hu) (converted)
[12] = Table 6, human plasma, read-out: fup, fraction unbound in human plasma

Row | Structure (SMILES) | half-life at 10 µM (in vitro [1]) [h] | fraction unbound at 4 h, 100 µM [2] | IC50 (CCRF-CEM) [µM] | IC50 (HL-60) [µM] | IC50 (HepG2) [µM] | IC50 (HeLa S3) [µM] | IC50 [3] [µM] | half-life at 10 µM (in vitro [4]) [h] | solubility at 2 h [5] [µM] | fraction unbound at 4 h, 100 µM [6, 11] | Mics (hu) comp remaining 60 min [7] [%] | microsomal CLint at 10 µM [7] [µL/min/mg] | Mics (m) comp remaining 60 min [8] [%] | microsomal CLint at 10 µM [8] [µL/min/mg] | dG_exp, experimental binding free energy [9] | half-life [10] [h] | clearance [10] [mL/min/kg] | fraction unbound at 4 h, 100 µM [6, 12]
1 | O=P(O)(O)CP(=O)(O)OC[C@H]1O[C@@H](n2ccc3c(-c4ccc(-c5ccccc5)cc4)ncnc32)[C@H](O)[C@@H]1O [4A.9] | > 2 | 0.144 | > 10 | > 10 | > 10 | > 10 | > 10 | > 2 | 64 (≈ 35.9 µg/mL) | 0.011 | – | – | – | – | – | – | – | –
2 | O=P(O)(O)CP(=O)(O)OC[C@H]1O[C@@H](n2ccc3c(-c4ccncc4)ncnc32)[C@H](O)[C@@H]1O [4A.16] | > 2 | 0.833 | > 10 | > 10 | > 10 | > 10 | > 10 | > 2 | 79 (≈ 38.4 µg/mL) | 0.304 | 94 | 3 | 80 | 9 | – | – | – | –
3 | N#Cc1ccc(-c2nc(Cl)nc3c2ccn3[C@@H]2O[C@H](COP(=O)(O)CP(=O)(O)O)[C@@H](O)[C@H]2O)c2ccccc12 [7B.34] | > 2 | 0.339 | > 10 | > 10 | > 10 | > 10 | > 10 | > 2 | > 100 | ≤ 0.01 | 97 | < 2 | – | < 2 | – | – | – | –
4 | O=P(O)(O)CP(=O)(O)OC[C@H]1O[C@@H](n2cnc3c(-c4cccc5ccccc45)ncnc32)[C@H](O)[C@@H]1O [31A.6, [(5-{[6-(Naphth-1-yl)-9H-purin-9-yl]-β-D-ribofuranosyl}oxy)phosphonomethyl]phosphonic Acid] | > 2 | 0.628 | > 10 | > 10 | > 10 | > 10 | > 10 | > 2 | 87 (≈ 46.7 µg/mL) | 0.093 | 121 | < 1 | 108 | < 1 | – | – | – | –
5 | O=P(O)(O)CP(=O)(O)OC[C@H]1O[C@@H](n2cnc3c(-c4ccc5ccccc5c4)ncnc32)[C@H](O)[C@@H]1O [31A.7] | > 2 | 0.224 | > 10 | 7.6 | 4.8 | > 10 | 3.7 | > 2 | 86 (≈ 46.1 µg/mL) | ≤ 0.01 | 106 | < 1 | 87 | 6 | – | – | – | –
6 | O=P(O)(O)CP(=O)(O)OC[C@H]1O[C@@H](n2ccc3c(-c4ccccc4)ncnc32)[C@@H](F)[C@@H]1O [34A.5, [(5-{[4-Phenyl-7H-pyrrolo[2,3-d]pyrimidin-7-yl]-2-deoxy-2-fluoro-β-D-arabinosyl}oxy)phosphonomethyl]phosphonic Acid] | > 2 | 0.2 | – | – | – | – | – | > 2 | 245 (≈ 119 µg/mL) | – | 93 | – | 97 | – | –11.2 kcal/mol | 5.1 | 3.3 | 0.022
7 | O=P(O)(O)CP(=O)(O)OC[C@H]1O[C@@H](n2ccc3c(-c4cccc5ccccc45)ncnc32)[C@@H](F)[C@@H]1O [34A.6] | > 2 | 0.065 | – | – | – | – | – | > 2 | 167 (≈ 89.7 µg/mL) | – | 97 | – | 94 | – | –11.8 kcal/mol | 1.3 | 19 | 0.017
8 | O=P(O)(O)CP(=O)(O)OC[C@H]1O[C@@H](n2ccc3c(-c4ccc5ccccc5c4)ncnc32)[C@@H](F)[C@@H]1O [34A.7] | > 2 | 0.022 | – | – | – | – | – | > 2 | 82 (≈ 44.1 µg/mL) | – | 94 | – | 90 | – | –11.8 kcal/mol | 3.13 | 7.2 | 0.002
9 | O=P(O)(O)CP(=O)(O)OC[C@H]1O[C@@H](n2ccc3c(-c4cccc5c4CCCC5)ncnc32)[C@@H](F)[C@@H]1O [34A.12] | > 2 | 0.055 | – | – | – | – | – | > 2 | 75 (≈ 40.6 µg/mL) | – | 96 | – | 115 | – | –12.4 kcal/mol | – | – | 0.007
10 | O=P(O)(O)CP(=O)(O)OC[C@H]1O[C@@H](n2ccc3c(-c4ccc5c(c4)CCCC5)ncnc32)[C@@H](F)[C@@H]1O [34A.17] | > 2 | 0.253 | – | – | – | – | – | > 2 | 73 (≈ 39.5 µg/mL) | – | 90 | – | 89 | – | –11.8 kcal/mol | – | – | 0.05
11 | O=P(O)(O)CP(=O)(O)OC[C@H]1O[C@@H](n2ccc3c(-c4ccc(F)c5ccccc45)ncnc32)[C@@H](F)[C@@H]1O [34A.23] | > 2 | 0.017 | – | – | – | – | – | > 2 | 100 (≈ 55.5 µg/mL) | – | 98 | – | 116 | – | –12.3 kcal/mol | – | – | 0.001
12 | O=P(O)(O)CP(=O)(O)OC[C@H]1O[C@@H](n2ccc3c(-c4ccnc5ccccc45)ncnc32)[C@@H](F)[C@@H]1O [34A.28] | > 2 | 0.058 | – | – | – | – | – | > 2 | 100 (≈ 53.8 µg/mL) | – | 102 | – | 101 | – | –12.5 kcal/mol | 1.32 | 18 | 0.014
